Patent EP4745134A1 (Jiangsu Yahong Meditech Co., Ltd., priority 2023, dated 2025)

Legend:
[1] = target: PRMT5-MTA (Homo sapiens, UniProt O14744); experiment: Enzymatic inhibitory activity against PRMT5-MTA (AlphaScreen); assay type: biochemical; settings: read-out: IC50
Summary of the method: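 PRMT5/[…] (1 nM) was preincubated for 30 min at room temperature with 1 µM […] and 2.5 µM SAM, then exposed to compound (10-point, 3-fold from 1000 nM) for 15 min at 23 °C. Histone H4 substrate (5 nM) was added and reacted for 45 min at 23 °C. Symmetric dimethyl-R3 H4 was detected by AlphaScreen and IC50 calculated.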

[2] = tested on: HCT116 MTAP KO cells; experiment: Inhibitory activity against cell proliferation (CellTiter Glo, 6 days), HCT116 MTAP KO; assay type: cell-based; settings: for IC50: Homo sapiens, HCT-116, 144 h, HCT116 MTAP KO cells, 6 days, CellTiter Glo, read-out: HCT116 MTAP KO IC50; for Selectivity HCT 116-WT/ HCT116 MTAP KO: ratio of IC50 HCT116-WT / HCT116 MTAP KO
Summary of the method: (§1)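 Cells were seeded at 250 per well in McCoy's 5A with 10% FBS and left overnight at 37°C, 5% CO2. Compounds were added as 8-point, 4-fold dilutions from 10000 nM, with DMSO-only controls, for 6 days. IC50 values came from CellTiter Glo luminescence.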

[3] = tested on: HCT116-WT cells; experiment: Inhibitory activity against cell proliferation (CellTiter Glo, 6 days), HCT116-WT; assay type: cell-based; settings: 144 h, HCT116-WT cells, 6 days, CellTiter Glo; read-out: HCT116-WT IC50
Summary of the method: as §1

Sequence of PRMT5-MTA (O14744 whole entry): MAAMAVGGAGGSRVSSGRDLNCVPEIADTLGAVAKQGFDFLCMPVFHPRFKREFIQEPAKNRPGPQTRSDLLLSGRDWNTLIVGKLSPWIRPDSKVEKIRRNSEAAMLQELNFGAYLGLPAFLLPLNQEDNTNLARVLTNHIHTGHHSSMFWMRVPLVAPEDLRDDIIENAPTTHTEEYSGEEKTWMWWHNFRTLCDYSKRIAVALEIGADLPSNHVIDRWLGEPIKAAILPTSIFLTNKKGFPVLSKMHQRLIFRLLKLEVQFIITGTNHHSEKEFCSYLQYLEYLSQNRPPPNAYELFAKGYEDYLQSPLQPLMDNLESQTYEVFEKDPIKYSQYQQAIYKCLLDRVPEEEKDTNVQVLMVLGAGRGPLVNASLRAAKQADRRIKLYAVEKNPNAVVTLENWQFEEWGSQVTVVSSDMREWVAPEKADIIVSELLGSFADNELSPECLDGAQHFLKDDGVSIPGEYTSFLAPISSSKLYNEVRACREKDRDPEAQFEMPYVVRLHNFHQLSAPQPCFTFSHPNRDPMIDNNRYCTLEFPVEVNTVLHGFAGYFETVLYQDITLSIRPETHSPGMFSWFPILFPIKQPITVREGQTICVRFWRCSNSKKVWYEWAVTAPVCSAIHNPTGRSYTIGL
Sequence of PRMT5-MTA (Q9BQA1 whole entry partner): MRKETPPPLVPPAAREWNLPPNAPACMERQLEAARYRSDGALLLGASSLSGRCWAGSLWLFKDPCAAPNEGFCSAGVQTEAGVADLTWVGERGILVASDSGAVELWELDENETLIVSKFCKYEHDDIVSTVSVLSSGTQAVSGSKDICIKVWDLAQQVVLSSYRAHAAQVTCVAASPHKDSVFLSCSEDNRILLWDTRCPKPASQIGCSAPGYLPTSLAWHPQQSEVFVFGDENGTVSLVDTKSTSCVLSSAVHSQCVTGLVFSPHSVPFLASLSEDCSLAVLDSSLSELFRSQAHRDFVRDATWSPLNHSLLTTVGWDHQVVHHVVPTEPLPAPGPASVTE

Row | SMILES | IC50 [1] [nM] | IC50 [2] [nM] | Selectivity HCT 116-WT/ HCT116 MTAP KO [2] | IC50 [3] [nM]
1 | Cc1cc2cc(C(=O)N(Cc3ccc(C(F)(F)F)cn3)N(C)c3ncccc3F)ccc2nc1N [Example 5, 2-amino-N'-(3-fluoropyridin-2-yl)-N',3-di methyl-N-((5-(trifluoromethyl)pyridin-2-yl)methyl)quinoline-6-carbohydrazide] | 1.5 | 42 | 20.29 | 852
2 | Cc1cc2nc(N)c3cnn(C)c3c2cc1C(=O)N1CC(=O)CN1c1ncccc1F [Example 354, 1-(4-amino-1,7-dimethyl-1H-pyrazolo[4,3-c]quinoline-8-carbonyl)-2-(3-fluoropyridin-2-yl)pyrazolin-4-one] | 3.8 | 62 | 40.76 | 2530
3 | Cc1cc2cc(C(=O)N(Cc3ccc(-c4cncnc4)cn3)N(C)c3ncccn3)ccc2nc1N [Example 193, 2-amino-N',3-dimethyl-N'-(pyrimidin-2-yl)-N-((5-(pyrimidin-5-yl)pyridin-2-yl)methyl)quinoline-6-carbohydrazide] | 2.7 | 94 | 25.35 | 2380
4 | C=C1CN(C(=O)c2cc3c(cc2Cl)nc(N)c2cnn(C)c23)N(c2cccc(F)n2)C1 [Example 435, (4-amino-7-chloro-1-methyl-1H-pyrazolo [4,3-c]quinolin-8-yl)(2-(6-fluoropyridin-2-yl)-4-methylenepyrazolidin-1-yl)methanone] | 7.3 | 15 | 27.13 | 407
5 | Cc1ncsc1-c1ccc(CN(C(=O)c2ccc3nc(N)c(Br)cc3c2)N(c2ncccn2)C2CC2)nc1 [Example 171, 2-amino-3-bromo-N'-cyclopropyl-N-((5-(4-methylthiazol-5-yl)pyridin-2-yl)methyl)-N'-(pyrimidin-2-yl)quinoline-6-carbohydrazide] | 5.2 | 43 | 14.47 | 622
6 | Cc1cc2cc(C(=O)N(Cc3ccc(C(C)(F)F)cn3)N(C)c3ncccn3)ccc2nc1N [Example 291, 2-amino-N-((5-(1,1-difluoroethyl)pyridin-2-yl)methyl)-N',3-dimethyl-N'-(pyrimidin-2-yl)quinoline-6-carbohydrazide] | 3.9 | 39 | 26.90 | 1050
7 | Cc1cc2cc(C(=O)N(Cc3ccc(C4CC4)cn3)N(C)c3ncccn3)ccc2nc1N [Example 153, 2-amino-N-((5-cyclopropylpyridin-2-yl)methyl)-N',3-dimethyl-N'-(pyrimidin-2-yl)quinoline-6-carbohydrazide] | 1.6 | 20 | 52.80 | 1060
8 | Cc1cc2cc(C(=O)N(Cc3ccc(-c4ccnnc4)cn3)N(C)c3ncccn3)ccc2nc1N [Example 220, 2-amino-N',3-dimethyl-N-((5-(pyridazin-4-yl)pyridin-2-yl)methyl)-N'-(pyrimidin-2-yl) quinoline-6-carbohydrazide] | 1.2 | 23 | 17.61 | 405
9 | [2H]C([2H])([2H])c1cc2cc(C(=O)N(Cc3ccc(-c4cncs4)cn3)N(C)c3ncccn3)ccc2nc1N [Example 318, 2-amino-N'-methyl-3-(methyl-D3)-N'-(pyrimidin-2-yl)-N-((5-(thiazol-5-yl)pyridin-2-yl)methyl)quinoline-6-carbohydrazide] | 6.3 | 16 | 21.13 | 338
10 | Cc1cc2cc(C(=O)N(Cc3ccc(-c4cscn4)cn3)N(C)c3ncccn3)ccc2nc1N [Example 221, 2-amino-N',3-dimethyl-N'-(pyrimidin-2-yl)-N-((5-(thiazol-4-yl)pyridin-2-yl)methyl)quinoline-6-carbohydrazide] | 2.3 | 69 | 27.16 | 1870
11 | Cc1cnc(N(C)N(Cc2ccc(C(F)(F)F)cn2)C(=O)c2ccc3nc(N)c(C)cc3c2)nc1 [Example 276, 2-amino-N',3-dimethyl-N'-(5-methylpyrimidin-2-yl)-N-((5-(trifluoromethyl)pyridin-2-yl)methyl)quinoline-6-carbohydrazide] | 1.6 | 80 | 24.70 | 1980
12 | Cc1cc2cc(C(=O)N(Cc3ccc(C(F)(F)F)cn3)N(C)c3ncc(Cl)cn3)ccc2nc1N [Example 69, 2-amino-N'-(5-chloropyrimidin-2-yl)-N', 3-dimethyl-N-((5-(trifluoromethyl)pyridin-2-yl)methyl)quinoline-6-carbohydrazide] | 2.4 | 216 | 14.63 | 3160
13 | Cc1ncc(-c2ccc(CN(C(=O)c3ccc4nc(N)c(C)cc4c3)N(C)c3ncccn3)nc2)s1 [Example 151, 2-amino-N',3-dimethyl-N-((5-(2-methylthiazol-5-yl)pyridin-2-yl)methyl)-N'-(pyrimidin-2-yl)quinoline-6-carbohydrazide] | 6.4 | 19 | 31.63 | 601
14 | C=Cc1ccc(CN(C(=O)c2ccc3nc(N)c(C)cc3c2)N(C)c2ncccn2)nc1 [Example 188, 2-amino-N',3-dimethyl-N'-(pyrimidin-2-yl)-N-((5-vinylpyridin-2-yl)methyl)quinoline-6-carbohydrazide] | 2.7 | 126 | 22.44 | 2830
15 | Cc1cc2cc(C(=O)N(Cc3ccc(C(F)(F)F)cn3)N3CCc4cccnc43)ccc2nc1N [Example 22, 2-amino-N-(2,3-dihydro-1H-pyrrolo[2,3-b]pyridin-1-yl)-3-methyl-N-((5-(trifluoromethy 1)pyridin-2-yl)methyl)quinoline-6-carboxamide] | 4.3 | 129 | 17.78 | 2290
16 | [2H]C([2H])([2H])N(c1nccc2nccnc12)N(Cc1ccc(C(F)(F)F)cn1)C(=O)c1ccc2nc(N)c(C)cc2c1 [Example 62] | 5.1 | 86 | 17.42 | 1500
17 | Cc1cc2cc(C(=O)N(Cc3cc4ccccc4cn3)N(C)c3ncccn3)ccc2nc1N [Example 104, 2-amino-N-(isoquinolin-3-ylmethyl)-N',3-dimethyl-N'-(pyrimidin-2-yl)quinoline-6-carbohydrazide] | 3.4 | 67 | 22.94 | 1540
18 | CC1CN(C(=O)c2cc3c(cc2F)nc(N)c2cnn(C)c23)N(c2ncccc2F)C1 (centres unmarked) [Example 393, (4-amino-7-fluoro-1-methyl-1H-pyrazolo [4,3-c]quinolin-8-yl)(2-(3-fluoropyridin-2-yl)-4-methylpyrazolidin-1-yl)methanone] | 3.4 | 9.8 | 51.22 | 502
19 | Cc1cc2cc(C(=O)N(Cc3ccc(-c4cc[nH]n4)cn3)N(C)c3ncccn3)ccc2nc1N [Example 142, N-((5-(1H-pyrazol-3-yl)pyridin-2-yl)methyl)-2-amino-N',3-dimethyl-N'-(pyrimidin-2-yl)quinoline-6-carbohydrazide] | 4.1 | 201 | 19.43 | 3910
20 | Cc1cc2cc(C(=O)N(Cc3ccc(C(F)(F)F)cn3)N(C)c3nccc4c3ncn4C)ccc2nc1N [Example 265, 2-amino-N',3-dimethyl-N'-(1-methyl-1H-imidazo[4,5-c]pyridin-4-yl)-N-((5-(trifluoromethyl)pyridin-2-yl)methyl)quinoline-6-carbohydrazide] | 2 | 38 | 14.45 | 549
21 | COc1ccccc1N1CC(C)CN1C(=O)c1cc2c(cc1C)nc(N)c1cnn(C)c12 (centres unmarked) [Example 401, (4-amino-1,7-dimethyl-1H-pyrazolo[4,3-c]quinolin-8-yl)(2-(2-methoxyphenyl)-4-methylpyrazolidin-1-yl)methanone] | 3.5 | 204 | >49.02 | > 10000
22 | Cc1cc2nc(N)c3cnn(C)c3c2cc1C(=O)N1CC(C(F)(F)F)CN1c1ncccc1F (centres unmarked) [Example 350, (4-amino-1,7-dimethyl-1H-pyrazolo[4,3-c]quinolin-8-yl)(2-(3-fluoropyridin-2-yl)-4-(trifluoromethyl)pyrazolidin-1-yl)methanone] | 3.5 | 29 | 35.38 | 1030
23 | Cn1ncc2c(N)nc3cc(Cl)c(C(=O)N4CC(C(F)(F)F)CN4c4ncccc4F)cc3c21 (centres unmarked) [Example 351, (4-amino-7-chloro-1-methyl-1H-pyrazolo [4,3-c]quinolin-8-yl)(2-(3-fluoropyridin-2-yl)-4-(trifluoromethyl)pyrazolidin-1-yl) methanone] | 4.9 | 85 | 21.59 | 1840
